In article PMC5218480 (PLoS ONE, 2017):

System: MV-4-11 cells
Assay: Gene expression microarray analysis (Affymetrix PrimeView) and GSEA
Type: cell-based, human
Parameters: RFU PODN (11730768_x_at) / Fold change /veh PODN (11730768_x_at) / RFU LINC00158 (11744669_a_at) / Fold change /veh LINC00158 (11744669_a_at) / RFU DUSP10 (11751237_a_at) / Fold change /veh DUSP10 (11751237_a_at) / RFU ID3 (11757404_x_at) / Fold change /veh ID3 (11757404_x_at) / RFU PLEKHG5 (11737974_s_at) / Fold change /veh PLEKHG5 (11737974_s_at) / RFU LRRC4B (11730491_at) / Fold change /veh LRRC4B (11730491_at) / RFU GIMAP4 (11747438_a_at) / Fold change /veh GIMAP4 (11747438_a_at) / RFU KRT8 (11758183_x_at) / Fold change /veh KRT8 (11758183_x_at) / RFU CNN1 (11734310_a_at) / Fold change /veh CNN1 (11734310_a_at) / RFU VPS37D (11726825_at) / Fold change /veh VPS37D (11726825_at) / RFU C10orf10 (11716522_x_at) / Fold change /veh C10orf10 (11716522_x_at) / RFU KIR2DL2 /// KIR2DL4 /// KIR2DL5A /// KIR2DL5B /// KIR2DS1 /// KIR2DS2 /// KIR2DS3 /// KIR2DS4 /// KIR3DL3 /// KIR3DL3 /// KIR3DS1 (11738374_at) / Fold change /veh KIR2DL2 /// KIR2DL4 /// KIR2DL5A /// KIR2DL5B /// KIR2DS1 /// KIR2DS2 /// KIR2DS3 /// KIR2DS4 /// KIR3DL3 /// KIR3DL3 /// KIR3DS1 (11738374_at) / RFU C1QL1 (11718748_at) / Fold change /veh C1QL1 (11718748_at) / RFU TMPRSS4 (11747572_a_at) / Fold change /veh TMPRSS4 (11747572_a_at) / RFU HAMP (11756126_x_at) / Fold change /veh HAMP (11756126_x_at) / RFU RNFT2 (11725882_a_at) / Fold change /veh RNFT2 (11725882_a_at) / RFU NR4A2 (11747474_a_at) / Fold change /veh NR4A2 (11747474_a_at) / RFU ABCC12 (11746883_a_at) / Fold change /veh ABCC12 (11746883_a_at) / RFU TMEM136 (11760407_x_at) / Fold change /veh TMEM136 (11760407_x_at) / RFU CLDN22 /// WWC2 (11732394_at) / Fold change /veh CLDN22 /// WWC2 (11732394_at) / RFU HLA-DPB1 (11760878_x_at) / Fold change /veh HLA-DPB1 (11760878_x_at) / RFU SPINT1 (11716480_a_at) / Fold change /veh SPINT1 (11716480_a_at) / RFU GAP43 (11754022_s_at) / Fold change /veh GAP43 (11754022_s_at) / RFU A4GNT (11735810_at) / Fold change /veh A4GNT (11735810_at) / RFU PRB3 (11715151_x_at) / Fold change /veh PRB3 (11715151_x_at) / RFU TUBB4B (11761932_at) / Fold change /veh TUBB4B (11761932_at) / RFU CAPN14 (11732068_a_at) / Fold change /veh CAPN14 (11732068_a_at) / RFU TMCC2 (11721928_a_at) / Fold change /veh TMCC2 (11721928_a_at) / RFU IRGQ (11745062_a_at) / Fold change /veh IRGQ (11745062_a_at) / RFU FAM174B (11720279_a_at) / Fold change /veh FAM174B (11720279_a_at) / RFU TMPRSS4 (11748680_a_at) / Fold change /veh TMPRSS4 (11748680_a_at) / RFU FAM212B (11763350_a_at) / Fold change /veh FAM212B (11763350_a_at) / RFU PLEKHG5 (11743358_a_at) / Fold change /veh PLEKHG5 (11743358_a_at) / RFU ZSCAN30 (11745921_a_at) / Fold change /veh ZSCAN30 (11745921_a_at) / RFU CMKLR1 (11741424_a_at) / Fold change /veh CMKLR1 (11741424_a_at) / RFU LOC101060620 /// MAPK8IP1 (11723275_at) / Fold change /veh LOC101060620 /// MAPK8IP1 (11723275_at) / RFU SPTSSB (11747773_x_at) / Fold change /veh SPTSSB (11747773_x_at) / RFU PRSS12 (11739890_at) / Fold change /veh PRSS12 (11739890_at) / RFU BIN1 (11741810_x_at) / Fold change /veh BIN1 (11741810_x_at) / RFU WNT11 (11732464_a_at) / Fold change /veh WNT11 (11732464_a_at) / RFU C10orf10 (11716521_a_at) / Fold change /veh C10orf10 (11716521_a_at) / RFU C5orf56 (11738089_at) / Fold change /veh C5orf56 (11738089_at) / RFU CYB561 (11721691_x_at) / Fold change /veh CYB561 (11721691_x_at) / RFU ANKRD19P (11752326_a_at) / Fold change /veh ANKRD19P (11752326_a_at) / RFU OR2T12 /// OR2T33 /// OR2T8 (11738714_s_at) / Fold change /veh OR2T12 /// OR2T33 /// OR2T8 (11738714_s_at) / RFU VCAN (11748164_a_at) / Fold change /veh VCAN (11748164_a_at) / RFU JSRP1 (11732532_at) / Fold change /veh JSRP1 (11732532_at) / RFU KRTAP10-11 (11738290_x_at) / Fold change /veh KRTAP10-11 (11738290_x_at) / RFU MYO3A (11730013_a_at) / Fold change /veh MYO3A (11730013_a_at) / RFU EBF3 (11725865_a_at) / Fold change /veh EBF3 (11725865_a_at) / RFU CAMK2N1 (11719241_x_at) / Fold change /veh CAMK2N1 (11719241_x_at) / RFU C5orf56 (11738088_a_at) / Fold change /veh C5orf56 (11738088_a_at) / RFU OLFML3 (11715873_a_at) / Fold change /veh OLFML3 (11715873_a_at) / RFU LOC100653217 /// NTM (11731650_a_at) / Fold change /veh LOC100653217 /// NTM (11731650_a_at) / RFU MAPK11 (11762145_a_at) / Fold change /veh MAPK11 (11762145_a_at) / RFU FIZ1 (11724087_x_at) / Fold change /veh FIZ1 (11724087_x_at) / RFU OASL (11726364_x_at) / Fold change /veh OASL (11726364_x_at) / RFU SOX15 (11748057_x_at) / Fold change /veh SOX15 (11748057_x_at) / RFU CD79A (11719716_a_at) / Fold change /veh CD79A (11719716_a_at) / RFU HIST1H1D (11736915_at) / Fold change /veh HIST1H1D (11736915_at) / RFU CASKIN2 (11723855_a_at) / Fold change /veh CASKIN2 (11723855_a_at) / RFU LOC730098 (11760151_x_at) / Fold change /veh LOC730098 (11760151_x_at) / RFU OR4N2 (11742367_at) / Fold change /veh OR4N2 (11742367_at) / RFU PRRT2 (11749266_a_at) / Fold change /veh PRRT2 (11749266_a_at) / RFU SNX32 (11753110_a_at) / Fold change /veh SNX32 (11753110_a_at) / RFU CDHR5 (11726645_a_at) / Fold change /veh CDHR5 (11726645_a_at) / RFU RCAN1 (11760418_a_at) / Fold change /veh RCAN1 (11760418_a_at) / RFU FAM167A (11723789_a_at) / Fold change /veh FAM167A (11723789_a_at) / RFU FAM26E (11764081_at) / Fold change /veh FAM26E (11764081_at) / RFU ISYNA1 (11749810_s_at) / Fold change /veh ISYNA1 (11749810_s_at) / RFU ACY1 (11761880_at) / Fold change /veh ACY1 (11761880_at) / RFU 11764098_at / Fold change /veh 11764098_at / RFU SAMD14 (11745864_x_at) / Fold change /veh SAMD14 (11745864_x_at) / RFU NPB (11741838_a_at) / Fold change /veh NPB (11741838_a_at) / RFU TMPRSS6 (11731388_a_at) / Fold change /veh TMPRSS6 (11731388_a_at) / RFU KRTAP10-2 (11738614_at) / Fold change /veh KRTAP10-2 (11738614_at) / RFU ARHGAP8 /// PRR5-ARHGAP8 (11727945_x_at) / Fold change /veh ARHGAP8 /// PRR5-ARHGAP8 (11727945_x_at) / RFU KRTAP5-7 /// NADSYN1 (11734609_at) / Fold change /veh KRTAP5-7 /// NADSYN1 (11734609_at) / RFU RASL12 (11751679_a_at) / Fold change /veh RASL12 (11751679_a_at) / RFU CDKN2B (11736163_a_at) / Fold change /veh CDKN2B (11736163_a_at) / RFU PRF1 (11729649_at) / Fold change /veh PRF1 (11729649_at) / RFU, ZNF638 /// ZNF638-IT1 / Fold change vs veh, ZNF638 /// ZNF638-IT1 / RFU, PANK3 / Fold change vs veh, PANK3 / RFU, SH3YL1 / Fold change vs veh, SH3YL1 / RFU, ZEB2 / Fold change vs veh, ZEB2 / RFU, NRIP1 / Fold change vs veh, NRIP1 / RFU, PTTG1IP / Fold change vs veh, PTTG1IP / RFU, CAPN2 / Fold change vs veh, CAPN2 / RFU, MED14 / Fold change vs veh, MED14 / RFU, SNORA58 / Fold change vs veh, SNORA58 / RFU, C1orf63 / Fold change vs veh, C1orf63 / RFU, LRRFIP1 / Fold change vs veh, LRRFIP1 / RFU, NDUFAF7 / Fold change vs veh, NDUFAF7 / RFU, SLC12A2 / Fold change vs veh, SLC12A2 / RFU, IBTK / Fold change vs veh, IBTK / RFU, ESF1 / Fold change vs veh, ESF1 / Fold change vs veh, TMEM50B / RFU, TAOK1 / Fold change vs veh, TAOK1 / RFU, ACBD3 / Fold change vs veh, ACBD3 / RFU, TMA16 / Fold change vs veh, TMA16 / RFU, RWDD3 / Fold change vs veh, RWDD3 / RFU, BCAT1 / Fold change vs veh, BCAT1 / RFU, EDEM3 / Fold change vs veh, EDEM3 / RFU, TMEM33 / Fold change vs veh, TMEM33 / RFU, WDR75 / Fold change vs veh, WDR75 / RFU, AHCTF1 / Fold change vs veh, AHCTF1 / RFU, TFRC / Fold change vs veh, TFRC / RFU, ZDHHC17 / Fold change vs veh, ZDHHC17 / RFU, NOM1 / Fold change vs veh, NOM1 / RFU, ARL8B / Fold change vs veh, ARL8B / RFU, ZBTB11 / Fold change vs veh, ZBTB11 / RFU, TAMM41 / Fold change vs veh, TAMM41 / RFU, KIAA1704 /// LOC100996395 / Fold change vs veh, KIAA1704 /// LOC100996395 / RFU, ING1 / Fold change vs veh, ING1 / RFU, TRMT61B / Fold change vs veh, TRMT61B / RFU, FUBP3 / Fold change vs veh, FUBP3 / RFU, TP53 / Fold change vs veh, TP53 / RFU, TNKS2 / Fold change vs veh, TNKS2 / RFU, ZFP14 / Fold change vs veh, ZFP14 / RFU, ACTR2 / Fold change vs veh, ACTR2 / RFU, PPP3R1 / Fold change vs veh, PPP3R1 / RFU, PIK3R1 / Fold change vs veh, PIK3R1 / RFU, HNRNPA1 / Fold change vs veh, HNRNPA1 / RFU, RNF170 / Fold change vs veh, RNF170 / RFU, ZNF28 / Fold change vs veh, ZNF28 / RFU, RNGTT / Fold change vs veh, RNGTT / RFU, OGT / Fold change vs veh, OGT / RFU, BRD1 / Fold change vs veh, BRD1 / RFU, MARS / Fold change vs veh, MARS / RFU, ZNF655 / Fold change vs veh, ZNF655 / RFU, FAHD1 / Fold change vs veh, FAHD1 / RFU, BDP1 / Fold change vs veh, BDP1 / RFU, LRRCC1 / Fold change vs veh, LRRCC1 / RFU, ARID1A / Fold change vs veh, ARID1A / RFU, ZNF146 / Fold change vs veh, ZNF146 / RFU, ZNF330 / Fold change vs veh, ZNF330 / RFU, GPN3 / Fold change vs veh, GPN3 / RFU, C9orf123 / Fold change vs veh, C9orf123 / RFU, N4BP2L2 / Fold change vs veh, N4BP2L2 / RFU, ARFIP1 / Fold change vs veh, ARFIP1 / RFU, FAM179B / Fold change vs veh, FAM179B / RFU, BCL10 / Fold change vs veh, BCL10 / RFU, UHRF1BP1L / Fold change vs veh, UHRF1BP1L / RFU, BET1 / Fold change vs veh, BET1 / RFU, CNOT2 / Fold change vs veh, CNOT2 / RFU, ZNF268 / Fold change vs veh, ZNF268 / Fold change vs veh, ZNF507 / RFU, DGCR2 / Fold change vs veh, DGCR2 / RFU, WDSUB1 / Fold change vs veh, WDSUB1 / Fold change vs veh, HSP90B1 /// MIR3652 / RFU, ADSS / Fold change vs veh, ADSS / RFU, GK / Fold change vs veh, GK / RFU, ZNF148 / Fold change vs veh, ZNF148 / RFU, TAF9 / Fold change vs veh, TAF9 / RFU, SLC1A5 / Fold change vs veh, SLC1A5 / RFU, SLMO2 / Fold change vs veh, SLMO2 / RFU, ABCC4 / Fold change vs veh, ABCC4 / RFU, LOC101060439 /// RAP1B / Fold change vs veh, LOC101060439 /// RAP1B / RFU, RFX7 / Fold change vs veh, RFX7 / RFU, GTPBP10 / Fold change vs veh, GTPBP10 / RFU, CNEP1R1 / Fold change vs veh, CNEP1R1 / RFU, BIVM-ERCC5 /// ERCC5 / Fold change vs veh, BIVM-ERCC5 /// ERCC5 / RFU, ILF3 / Fold change vs veh, ILF3 / RFU 11762660_at / Fold change /veh 11762660_at / RFU VCAN (11757783_s_at) / Fold change /veh VCAN (11757783_s_at) / RFU DDX43 (11728927_at) / Fold change /veh DDX43 (11728927_at) / RFU KRT8 (11758188_x_at) / Fold change /veh KRT8 (11758188_x_at) / RFU NKD1 (11759106_at) / Fold change /veh NKD1 (11759106_at) / RFU SRD5A1 (11742802_a_at) / Fold change /veh SRD5A1 (11742802_a_at) / RFU TPSAB1 /// TPSB2 (11721975_s_at) / Fold change /veh TPSAB1 /// TPSB2 (11721975_s_at) / RFU GSTM3 (11746129_a_at) / Fold change /veh GSTM3 (11746129_a_at) / RFU IL23R (11737362_x_at) / Fold change /veh IL23R (11737362_x_at) / RFU TMEM51 (11727254_a_at) / Fold change /veh TMEM51 (11727254_a_at) / RFU PIWIL2 (11732686_x_at) / Fold change /veh PIWIL2 (11732686_x_at) / RFU ORM1 (11744905_x_at) / Fold change /veh ORM1 (11744905_x_at) / RFU CCDC152 (11743942_at) / Fold change /veh CCDC152 (11743942_at) / RFU ECM1 (11717891_a_at) / Fold change /veh ECM1 (11717891_a_at) / RFU IL23R (11748794_a_at) / Fold change /veh IL23R (11748794_a_at) / RFU TNFAIP8L3 (11732012_x_at) / Fold change /veh TNFAIP8L3 (11732012_x_at) / RFU MBOAT4 (11741988_at) / Fold change /veh MBOAT4 (11741988_at) / RFU 11764193_at / Fold change /veh 11764193_at / RFU TMEM53 (11763286_at) / Fold change /veh TMEM53 (11763286_at) / RFU MAGEB2 (11727129_at) / Fold change /veh MAGEB2 (11727129_at) / RFU TMEM200A (11744735_a_at) / Fold change /veh TMEM200A (11744735_a_at) / RFU CCDC152 (11751479_a_at) / Fold change /veh CCDC152 (11751479_a_at) / RFU FAM211A (11726209_a_at) / Fold change /veh FAM211A (11726209_a_at) / RFU RGS16 (11746705_a_at) / Fold change /veh RGS16 (11746705_a_at) / RFU VCAN (11755009_s_at) / Fold change /veh VCAN (11755009_s_at) / RFU RHOB (11743442_s_at) / Fold change /veh RHOB (11743442_s_at) / RFU RGS16 (11720943_a_at) / Fold change /veh RGS16 (11720943_a_at) / RFU RGS16 (11720944_at) / Fold change /veh RGS16 (11720944_at) / RFU, VPS4B / Fold change vs veh, VPS4B / RFU, CREB1 / Fold change vs veh, CREB1 / RFU, DNAJC13 / Fold change vs veh, DNAJC13 / RFU, GNAQ / Fold change vs veh, GNAQ / RFU, CDK5R1 / Fold change vs veh, CDK5R1 / RFU, ZRANB3 / Fold change vs veh, ZRANB3 / RFU, CUL4A / Fold change vs veh, CUL4A / RFU, CCNY / Fold change vs veh, CCNY / RFU, UFL1 / Fold change vs veh, UFL1 / RFU, COG3 / Fold change vs veh, COG3 / RFU, DIAPH2 / Fold change vs veh, DIAPH2 / RFU, SKA2 / Fold change vs veh, SKA2 / RFU, AFF3 / Fold change vs veh, AFF3 / RFU, LMF1 / Fold change vs veh, LMF1 / RFU, IPO11 / Fold change vs veh, IPO11 / RFU, DFFB / Fold change vs veh, DFFB / RFU, FOXP1 / Fold change vs veh, FOXP1 / RFU, CARD8 / Fold change vs veh, CARD8 / RFU, STRN3 / Fold change vs veh, STRN3 / RFU, ADK / Fold change vs veh, ADK / RFU, RASSF2 / Fold change vs veh, RASSF2 / RFU, WIPF1 / Fold change vs veh, WIPF1 / RFU, LARP1B / Fold change vs veh, LARP1B / RFU, RASA1 / Fold change vs veh, RASA1 / RFU, RB1 / Fold change vs veh, RB1 / RFU, PPFIA1 / Fold change vs veh, PPFIA1 / RFU, MAT2A / Fold change vs veh, MAT2A / RFU, CCT5 / Fold change vs veh, CCT5 / RFU, WDR92 / Fold change vs veh, WDR92 / RFU, CUX1 / Fold change vs veh, CUX1 / RFU, TTC7A / Fold change vs veh, TTC7A / RFU, TMEM135 / Fold change vs veh, TMEM135 / RFU, DEPTOR / Fold change vs veh, DEPTOR / RFU, CPM / Fold change vs veh, CPM / RFU, DNAJB6 / Fold change vs veh, DNAJB6 / RFU, CACNA2D3 / Fold change vs veh, CACNA2D3 / RFU, DTX4 / Fold change vs veh, DTX4 / RFU, TFCP2 / Fold change vs veh, TFCP2 / RFU, GMCL1 /// GMCL1P1 / Fold change vs veh, GMCL1 /// GMCL1P1 / RFU, AEBP2 / Fold change vs veh, AEBP2 / RFU, SNHG1 /// SNORD22 /// SNORD25 /// SNORD26 /// SNORD27 /// SNORD28 /// SNORD29 /// SNORD31 / Fold change vs veh, SNHG1 /// SNORD22 /// SNORD25 /// SNORD26 /// SNORD27 /// SNORD28 /// SNORD29 /// SNORD31 / Fold change (Aza/veh), C12orf56 (ProbeSet 11735607_a_at) / Fold change (ACY-1035/veh), C12orf56 (ProbeSet 11735607_a_at) / Fold change (Aza/veh), FGFR1OP (ProbeSet 11751329_s_at) / Fold change (ACY-1035/veh), FGFR1OP (ProbeSet 11751329_s_at) / Fold change (Aza/veh), VPS36 (ProbeSet 11739960_a_at) / Fold change (ACY-1035/veh), VPS36 (ProbeSet 11739960_a_at) / RFU SYPL1 (11715823_x_at) / Fold change /veh SYPL1 (11715823_x_at) / RFU IGFBP7 (11715501_s_at) / Fold change /veh IGFBP7 (11715501_s_at) / RFU REEP3 (11722064_at) / Fold change /veh REEP3 (11722064_at) / RFU IGLL1 (11728026_x_at) / Fold change /veh IGLL1 (11728026_x_at): dose or concentration left out as unconfirmed
Conditions: MV-4-11 cells, 48 hours

## Nc1ncn([C@@H]2O[C@H](CO)[C@@H](O)[C@H]2O)c(=O)n1 [azacitidine]
  RFU CNN1 (11734310_a_at): 25.48 RFU
